Assay results taken from patent US5502035A, “N-terminus modified analogs of LHRH” (Tap Holdings Inc., priority 1994, dated 1996).
Non-standard residues stand in square brackets, D forms with d. Residues, ends and D or L forms follow the SMILES beside them. Groups on a side chain read outwards from the residue. *: point of attachment. dAla(benzothien-2-yl) = N[C@H](Cc1cc2ccccc2s1)C(=O)O; Shikimoyl = O=C(C1=C[C@@H](O)[C@@H](O)[C@H](O)C1)*; Quinoline3carbonyl = O=C(c1cnc2ccccc2c1)*; dPhe(4-Cl) = N[C@H](Cc1ccc(Cl)cc1)C(=O)O; d2Nal = N[C@H](Cc1ccc2ccccc2c1)C(=O)O; Lys(iPr) = CC(C)NCCCC[C@H](N)C(=O)O; NMeY = CN[C@@H](Cc1ccc(O)cc1)C(=O)O; Thiophene2carbonyl = O=C(c1cccs1)*; dCit = NC(=O)NCCC[C@@H](N)C(=O)O; hArg = N=C(N)NCCCC[C@H](N)C(=O)O; d3Pal = N[C@H](Cc1cccnc1)C(=O)O; Nicotinoyl = O=C(c1cccnc1)*; Tos = Cc1ccc(S(=O)(=O)*)cc1; Aze = O=C(O)[C@@H]1CCN1; X1 = O=C([C@@H]1CCCO1)*; Ava = NCCCCC(=O)O; azaGly = NNC(=O)O; βAla = NCCC(=O)O; Sar = CNCC(=O)O

Molecular target: T1, LHRH (Rattus norvegicus, UniProt P30969)
T1 construct: endogenous in cells; host or cells: rat pituitary cells (own knowledge of the cited Haviv 1989 method)
T1 sequence (P30969 1-327): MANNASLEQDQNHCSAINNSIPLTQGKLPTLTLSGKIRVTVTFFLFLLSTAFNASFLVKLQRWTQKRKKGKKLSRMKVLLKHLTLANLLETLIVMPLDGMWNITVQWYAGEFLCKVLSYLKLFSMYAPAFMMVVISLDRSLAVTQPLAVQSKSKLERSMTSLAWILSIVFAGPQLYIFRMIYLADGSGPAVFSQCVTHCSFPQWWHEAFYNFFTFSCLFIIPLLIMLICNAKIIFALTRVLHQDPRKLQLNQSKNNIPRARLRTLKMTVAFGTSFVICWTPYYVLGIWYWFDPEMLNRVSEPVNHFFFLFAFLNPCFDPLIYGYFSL
Assay: in vitro test for LHRH antagonist potency (pA2)
Type: cell-based
Details: negative logarithm of the antagonist concentration required to shift the response curve produced by the agonist leuprolide to two-fold higher concentration
Method in brief: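 Rat LHRH receptor in vitro functional test; pA2 = negative log of the antagonist concentration shifting the leuprolide agonist response curve to two-fold higher concentration.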

Row | SMILES | Kb [pM]
1 | CC(C)C[C@H](NC(=O)[C@@H](CCCNC(N)=O)NC(=O)[C@H](Cc1ccc(O)cc1)N(C)C(=O)[C@H](CO)NC(=O)[C@@H](Cc1cccnc1)NC(=O)[C@@H](Cc1ccc(Cl)cc1)NC(=O)[C@@H](Cc1ccc2ccccc2c1)NC(=O)[C@@H]1CCCO1)C(=O)N[C@@H](CCCNC(=N)N)C(=O)N1CCC[C@H]1C(=O)N[C@H](C)C(N)=O [Example 76, N-(S)-Tetrahydofur-2-oyl-D2Nal-D4ClPhe-D3Pal-Ser-NMeTyr-DCit-Leu-Arg-Pro-DAlaNH2] (X1-[d2Nal][dPhe(4-Cl)][d3Pal]S[NMeY][dCit]LRP[dA]-NH2) | 35.5
2 | CC(C)C[C@H](NC(=O)[C@@H](CCCCNC(=O)c1cccnc1)NC(=O)[C@H](Cc1ccc(O)cc1)N(C)C(=O)[C@H](CO)NC(=O)[C@@H](Cc1cccnc1)NC(=O)[C@@H](Cc1ccc(Cl)cc1)NC(=O)[C@@H](Cc1ccc2ccccc2c1)NC(=O)CCCCNC(=O)C1=C[C@@H](O)[C@@H](O)[C@H](O)C1)C(=O)N[C@@H](CCCCNC(C)C)C(=O)N1CCC[C@H]1C(=O)N[C@H](C)C(N)=O [Example 6f, N-Shikimyl-5Aminovaleryl-D2Nal-D4ClPhe-D3Pal-Ser-NMeTyr-DLys(N-epsilon-Nicotinyl) -Leu-Lys(N-epsilon-Isopropyl)-Pro-DAlaNH2] ({Shikimoyl-Ava}-[d2Nal][dPhe(4-Cl)][d3Pal]S[NMeY][dK](Nicotinoyl)L[Lys(iPr)]P[dA]-NH2) | 25.7
3 | CC(C)C[C@H](NC(=O)[C@@H](CCCCNC(=O)C1=C[C@@H](O)[C@@H](O)[C@H](O)C1)NC(=O)[C@H](Cc1ccc(O)cc1)N(C)C(=O)[C@H](CO)NC(=O)[C@@H](Cc1cccnc1)NC(=O)[C@@H](Cc1ccc(Cl)cc1)NC(=O)[C@@H](Cc1ccc2ccccc2c1)NC(=O)CNC(=O)c1cnc2ccccc2c1)C(=O)N[C@@H](CCCCNC(=N)N)C(=O)N1CCC[C@H]1C(=O)N[C@H](C)C(N)=O [Example 25g, N-(3-Quinolinylcarbonyl)-Gly-D2Nal-D4ClPhe-D3Pal-Ser-NMeTyr-DLys(Shikimyl)-Leu-Harg-Pro-DAlaNH2] (Quinoline3carbonyl-G[d2Nal][dPhe(4-Cl)][d3Pal]S[NMeY][dK](Shikimoyl)L[hArg]P[dA]-NH2) | 32.4
4 | CC(C)C[C@H](NC(=O)[C@@H](CCCCNC(=O)NNC(=O)c1cccnc1)NC(=O)[C@H](Cc1ccc(O)cc1)N(C)C(=O)[C@H](CO)NC(=O)[C@@H](Cc1cccnc1)NC(=O)[C@@H](Cc1ccc(Cl)cc1)NC(=O)[C@@H](Cc1ccc2ccccc2c1)NC(=O)NNC(=O)c1cccnc1)C(=O)N[C@@H](CCCCNC(C)C)C(=O)N1CCC[C@H]1C(=O)N[C@H](C)C(N)=O [Example 31, N-Nicotinyl-Azagly-D2Nal-D4ClPhe-D3Pal-Ser-NMeTyr-DLys(Azagly-Nic)-Leu-Lys(Isp)-Pro-DAlaNH2] (Nicotinoyl-[azaGly][d2Nal][dPhe(4-Cl)][d3Pal]S[NMeY][dK]([azaGly-Nicotinoyl])L[Lys(iPr)]P[dA]-NH2) | 19.5
5 | CC(C)C[C@H](NC(=O)[C@@H](CCCCNC(=O)c1cccnc1)NC(=O)[C@H](Cc1ccc(O)cc1)N(C)C(=O)[C@H](CO)NC(=O)[C@H](Cc1cccnc1)NC(=O)[C@@H](Cc1ccc(Cl)cc1)NC(=O)[C@@H](Cc1ccc2ccccc2c1)NC(=O)CNC(=O)[C@@H]1CCCO1)C(=O)N[C@@H](CCCCNC(C)C)C(=O)N1CCC[C@H]1C(=O)N[C@H](C)C(N)=O [Example 83, N (S)-2-Tetrahydrofuroyl-Gly-D2Nal-D4ClPhe-3Pal-Ser-NMeTyr-DLys(N-epsilon-Nicotinyl) -Leu-Lys(N-epsilon-Isopropyl)-Pro-DAlaNH2] | 11.2
6 | CC(C)C[C@H](NC(=O)[C@@H](CCCCNC(=O)c1cccnc1)NC(=O)[C@H](Cc1ccc(O)cc1)N(C)C(=O)[C@H](CO)NC(=O)[C@@H](Cc1cccnc1)NC(=O)[C@@H](Cc1ccc(Cl)cc1)NC(=O)[C@@H](Cc1ccc2ccccc2c1)NC(=O)c1cccs1)C(=O)N[C@@H](CCCCNC(C)C)C(=O)N1CCC[C@H]1C(=O)N[C@H](C)C(N)=O [Example 72c, N-Thienyl-2-carbonyl-D2Nal-D4ClPhe-D3Pal-Ser-NMeTyr-DLys(Nic)-Leu-Lys(Isp)-Pro-DAlaNH2] (Thiophene2carbonyl-[d2Nal][dPhe(4-Cl)][d3Pal]S[NMeY][dK](Nicotinoyl)L[Lys(iPr)]P[dA]-NH2) | 20
7 | CC(C)C[C@H](NC(=O)[C@@H](CCCCNC(=O)c1cccnc1)NC(=O)[C@H](Cc1ccc(O)cc1)N(C)C(=O)[C@H](CO)NC(=O)[C@@H](Cc1cc2ccccc2s1)NC(=O)[C@@H](Cc1ccc(Cl)cc1)NC(=O)CN(C)C(=O)CNC(=O)c1cccnc1)C(=O)N[C@@H](CCCCNC(C)C)C(=O)N1CCC[C@H]1C(=O)N[C@H](C)C(N)=O [Example 35b, Nic-Gly-Sar-D4ClPhe-DBal-Ser-NMeTyr-DLys(Nic)-Leu-Lys(Isp)-Pro-DAlaNH2] (Nicotinoyl-G[Sar][dPhe(4-Cl)][dAla(benzothien-2-yl)]S[NMeY][dK](Nicotinoyl)L[Lys(iPr)]P[dA]-NH2) | 79.4
8 | CC(C)C[C@H](NC(=O)[C@@H](CCCCNC(=O)c1cccnc1)NC(=O)[C@H](Cc1ccc(O)cc1)N(C)C(=O)[C@H](CO)NC(=O)[C@@H](Cc1cccnc1)NC(=O)[C@@H](Cc1ccc(Cl)cc1)NC(=O)[C@@H](Cc1ccc2ccccc2c1)NC(=O)CNC(=O)C1=C[C@@H](O)[C@@H](O)[C@H](O)C1)C(=O)N[C@@H](CCCNC(=N)N)C(=O)N1CC[C@H]1C(=O)N[C@H](C)C(N)=O [Example 27c, N-Shikimyl-Gly-D2Nal-D4ClPhe-D3Pal-Ser-NMeTyr-DLys(Nic)-Leu-Arg-Aze-DAlaNH2] (Shikimoyl-G[d2Nal][dPhe(4-Cl)][d3Pal]S[NMeY][dK](Nicotinoyl)LR[Aze][dA]-NH2) | 97.7
9 | CC(C)C[C@H](NC(=O)[C@@H](CCCCNC(=O)C1=C[C@@H](O)[C@@H](O)[C@H](O)C1)NC(=O)[C@H](Cc1ccc(O)cc1)N(C)C(=O)[C@H](CO)NC(=O)[C@@H](Cc1cccnc1)NC(=O)[C@@H](Cc1ccc(Cl)cc1)NC(=O)[C@@H](Cc1ccc2ccccc2c1)NC(=O)CNC(=O)c1cccnc1)C(=O)N[C@@H](CCCNC(=N)N)C(=O)N1CC[C@H]1C(=O)N[C@H](C)C(N)=O [Example 24, N-Nicotinyl-Gly-D2Nal-D4ClPhe-D3Pal-Ser-NMeTyr-DLys(Shikimyl)-Leu-Arg-Aze-DAlaNH2] (Nicotinoyl-G[d2Nal][dPhe(4-Cl)][d3Pal]S[NMeY][dK](Shikimoyl)LR[Aze][dA]-NH2) | 28.2
10 | CC(C)C[C@H](NC(=O)[C@@H](CCCCNC(=O)C1=C[C@@H](O)[C@@H](O)[C@H](O)C1)NC(=O)[C@H](Cc1ccc(O)cc1)N(C)C(=O)[C@H](CO)NC(=O)[C@@H](Cc1cccnc1)NC(=O)[C@@H](Cc1ccc(Cl)cc1)NC(=O)[C@@H](Cc1ccc2ccccc2c1)NC(=O)CNC(=O)C1=C[C@@H](O)[C@@H](O)[C@H](O)C1)C(=O)N[C@@H](CCCNC(=N)N)C(=O)N1CC[C@H]1C(=O)N[C@H](C)C(N)=O [Example 19, N-Shikimyl-Gly-D2Nal-D4ClPhe-D3Pal-Ser-NMeTyr-DLys(Shik)-Leu-Arg-Aze-DAlaNH2] (Shikimoyl-G[d2Nal][dPhe(4-Cl)][d3Pal]S[NMeY][dK](Shikimoyl)LR[Aze][dA]-NH2) | 40.7
11 | CC(C)C[C@H](NC(=O)[C@@H](CCCCNC(=O)C1=C[C@@H](O)[C@@H](O)[C@H](O)C1)NC(=O)[C@H](Cc1ccc(O)cc1)N(C)C(=O)[C@H](CO)NC(=O)[C@@H](Cc1cccnc1)NC(=O)[C@@H](Cc1ccc(Cl)cc1)NC(=O)[C@@H](Cc1ccc2ccccc2c1)NC(=O)CCNC(=O)c1cccnc1)C(=O)N[C@@H](CCCCNC(=N)N)C(=O)N1CCC[C@H]1C(=O)N[C@H](C)C(N)=O [Example 28, N-Nicotinyl-3Aminopropionyl-D2Nal-D4ClPhe-D3Pal-Ser-NMeTyr-DLys(Shik)-Leu-Harg-Pro-DAlaNH2] ({Nicotinoyl-βAla}-[d2Nal][dPhe(4-Cl)][d3Pal]S[NMeY][dK](Shikimoyl)L[hArg]P[dA]-NH2) | 9.77
12 | Cc1ccc(S(=O)(=O)N[C@H](Cc2ccc3ccccc3c2)C(=O)N[C@H](Cc2ccc(Cl)cc2)C(=O)N[C@H](Cc2cccnc2)C(=O)N[C@@H](CO)C(=O)N(C)[C@@H](Cc2ccc(O)cc2)C(=O)N[C@H](CCCNC(N)=O)C(=O)N[C@@H](CC(C)C)C(=O)N[C@@H](CCCNC(=N)N)C(=O)N2CCC[C@H]2C(=O)N[C@H](C)C(N)=O)cc1 [Example 66, N-Tosyl-D2Nal-D4ClPhe-D3Pal-Ser-NMeTyr-DCit-Leu-Arg-Pro-DAlaNH2] (Tos-[d2Nal][dPhe(4-Cl)][d3Pal]S[NMeY][dCit]LRP[dA]-NH2) | 2630
13 | CC(C)C[C@H](NC(=O)[C@@H](CCCCNC(=O)c1cccnc1)NC(=O)[C@H](Cc1ccc(O)cc1)N(C)C(=O)[C@H](CO)NC(=O)[C@@H](Cc1cccnc1)NC(=O)[C@@H](Cc1ccc(Cl)cc1)NC(=O)[C@@H](Cc1ccc2ccccc2c1)NC(=O)CNC(=O)c1cccnc1)C(=O)N[C@@H](CCCCNC(=N)N)C(=O)N1CCC[C@H]1C(=O)N[C@H](C)C(N)=O [Example 25f, N-Nicotinyl-Gly-D2Nal-D4ClPhe-D3Pal-Ser-NMeTyr-DLys(Nicotinyl)-Leu-Harg-Pro-DAlaNH2] (Nicotinoyl-G[d2Nal][dPhe(4-Cl)][d3Pal]S[NMeY][dK](Nicotinoyl)L[hArg]P[dA]-NH2) | 23.4
14 | CC(C)C[C@H](NC(=O)[C@@H](CCCCNC(=O)c1cccnc1)NC(=O)[C@H](Cc1ccc(O)cc1)N(C)C(=O)[C@H](CO)NC(=O)[C@@H](Cc1cccnc1)NC(=O)[C@@H](Cc1ccc(Cl)cc1)NC(=O)[C@@H](Cc1ccc2ccccc2c1)NC(=O)NNC(=O)c1cccnc1)C(=O)N[C@@H](CCCCNC(C)C)C(=O)N1CCC[C@H]1C(=O)N[C@H](C)C(N)=O [Example 37b, N-Nicotinyl-Azagly-D2Nal-D4ClPhe-D3Pal-Ser-NMeTyr-DLys(Nic)-Leu-Lys(Isp)-Pro-DAlaNH2] (Nicotinoyl-[azaGly][d2Nal][dPhe(4-Cl)][d3Pal]S[NMeY][dK](Nicotinoyl)L[Lys(iPr)]P[dA]-NH2) | 15.8
